Data on two compounds can be found in paper PMC10281575, “PfCRT mutations conferring piperaquine resistance in falciparum malaria shape the kinetics of quinoline drug binding and transport” (PLOS Pathogens, 2023).

SMILES strings stand for the structures. Several values for one entry are separate records, joined by “and”; a condition that tells them apart may be missing. Equal values may be shown once.

One experiment addresses T1, PfCRT^HB3 (Plasmodium falciparum, UniProt Q8IBZ9).
T1 construct: expressed in transfected cells; host or cells: Xenopus laevis oocytes injected with in vitro transcribed RNA (pSP64T)
Put plainly: Radiolabeled drug uptake in X. laevis oocytes expressing wild type PfCRT^HB3. The experiment is classed as cell-based. The note with it: pH 6.0. The method, then: Adult female X. laevis frogs (purchased from NASCO) were anesthetized by submersion in a solution of 0.3% (w/v) 3-amino benzoate methanesulfonate for 15 min. Sections of the ovary were surgically removed and placed in Ca^2+-free ND96 buffer supplemented with 0.1% collagenase D (w/v; Roche), 0.5% BSA (w/v) and 9 mM Na2HPO4 at 18°C for 14–16 h while gently shaking. The oocytes were then washed several times with ND96 buffer (5 mM HEPES, pH 7.5, 96 mM NaCl, 2 mM KCl, 1.8 mM CaCl2, 1 mM MgCl2), supplemented with […] gentamycin. Healthy-looking stage V-VI oocytes were manually selected and randomly grouped for injection. A codon-optimized coding sequence of PfCRT was subcloned into the pSP64T expression vector and subsequently linearized using the restriction endonuclease BamHI or SalI (New England Biolabs GmbH). RNA for injection was transcribed in vitro using the mMESSAGE mMACHINE SP6 Transcription kit (Ambion), diluted with nuclease-free water to a final concentration of 0.6 μg/μL and stored at -80°C. RNA was injected using precision-bore glass capillary tubes (3.5-inch glass capillaries; Drummond Scientific Co.), which were pulled on a vertical puller (P-87 Flaming/Brown micropipette puller, Sutter Instrument Co.) and graduated. The micropipettes were connected to a microinjector (Nanoject II Auto-Nanoliter Injector, Drummond Scientific Co.). Injection was conducted under stereomicroscopic control. 50 nL of nuclease-free water alone (control oocytes) or 50 nL of nuclease-free water containing 30 ng of RNA was injected per oocyte. Injected oocytes were kept for 72 h at 18°C in ND96 buffer with two daily buffer changes before being used for further experiments.
Drug transport assays were performed as previously described. Briefly, measurements of radiolabeled drug uptake were made over 1 h, unless otherwise specified. […] Where specified, one or more unlabeled drugs were also present at the indicated concentrations. […] The uptake assays were terminated by removing the oocytes from the reaction medium and washing them three times with 2 mL of ice-cold ND96 buffer. Each oocyte was transferred to a separate scintillation vial and lysed by the addition of 200 μL of a 5% SDS solution. The radioactivity in the sample was measured using a liquid scintillation analyser Tri-Carb 4910 TR (PerkinElmer). Water-injected oocytes were analyzed in parallel as a negative control. The buffer from each condition was measured in duplicate in parallel to each experiment to transform counts per minute into pmol of drug. Drug uptake attributable to PfCRT was determined by subtracting the background uptake from water-injected oocytes from that of PfCRT-expressing oocytes. In all cases, at least three independent experiments were performed on oocytes from different frogs, and for each condition in an experiment, measurements were made from 10 oocytes per treatment.

The target of a further experiment is T2, PfCRT^Dd2_H97Y (Plasmodium falciparum, UniProt Q8IBZ9, A220S/H97Y/I356T/K76T/M74I/N326S/N75E/Q271E/R371I).
T2 construct: expressed in transfected cells; host or cells: Xenopus laevis oocytes injected with in vitro transcribed RNA (pSP64T)
T2 sequence (Q8IBZ9 1-424 M74I/N75E/K76T/H97Y/A220S/Q271E/N326S/I356T/R371I): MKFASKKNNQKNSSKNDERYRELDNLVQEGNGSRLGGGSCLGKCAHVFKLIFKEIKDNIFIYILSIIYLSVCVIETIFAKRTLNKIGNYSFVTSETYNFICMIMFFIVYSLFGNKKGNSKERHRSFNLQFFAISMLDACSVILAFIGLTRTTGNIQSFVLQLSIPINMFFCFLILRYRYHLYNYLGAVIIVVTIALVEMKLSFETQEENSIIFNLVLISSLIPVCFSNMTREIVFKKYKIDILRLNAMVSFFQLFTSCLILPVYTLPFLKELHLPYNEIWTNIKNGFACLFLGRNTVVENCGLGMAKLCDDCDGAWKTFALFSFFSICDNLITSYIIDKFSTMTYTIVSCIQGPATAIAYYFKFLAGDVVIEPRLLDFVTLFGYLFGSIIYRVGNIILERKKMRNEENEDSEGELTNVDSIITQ
Put plainly: Verapamil inhibition of PfCRT-mediated CQ and PPQ transport in oocytes, PfCRT^Dd2_H97Y. The experiment is classed as cell-based. As to conditions: individual replicates (S3 Fig). On the procedure: In all cases, the PfCRT-mediated CQ and PPQ transport was inhibited in the presence of 100 μM verapamil (S3 Fig).
Drug transport assays were performed as previously described. Briefly, measurements of radiolabeled drug uptake were made over 1 h, unless otherwise specified. […] Where specified, one or more unlabeled drugs were also present at the indicated concentrations. The direction of drug transport in the assays is from the extracellular medium (pH 6) into the oocyte cytosol (pH 7.2), which corresponds to the efflux of CQ or PPQ from the acidic digestive vacuole (pH 5.2) into the parasite cytosol (pH 7.2). The uptake assays were terminated by removing the oocytes from the reaction medium and washing them three times with 2 mL of ice-cold ND96 buffer. Each oocyte was transferred to a separate scintillation vial and lysed by the addition of 200 μL of a 5% SDS solution. The radioactivity in the sample was measured using a liquid scintillation analyser Tri-Carb 4910 TR (PerkinElmer). Water-injected oocytes were analyzed in parallel as a negative control. The buffer from each condition was measured in duplicate in parallel to each experiment to transform counts per minute into pmol of drug. Drug uptake attributable to PfCRT was determined by subtracting the background uptake from water-injected oocytes from that of PfCRT-expressing oocytes. In all cases, at least three independent experiments were performed on oocytes from different frogs, and for each condition in an experiment, measurements were made from 10 oocytes per treatment.
Supplementary file ppat.1011436.s006.tif: S3 Fig Verapamil inhibits PfCRT-mediated transport of CQ and PPQ. […] Left panels, data is shown as individual biological replicates (coloured symbols) overlaid onto bars representing the Mean ± S.E.M. (error bars). A one-tailed Student’s t-test was performed between untreated (no VP) and treated (+ 100 μM VP) samples, and the obtained p values are shown. Right panels, the uptake in VP-treated samples was divided by the uptake in their corresponding untreated pairs and subtracted from 100% to get the percentage of uptake inhibition mediated by the presence of 100 μM verapamil in the extracellular medium. Error bars are S.E. (TIF) Click here for additional data file.

The mark [1] stands for this setting: 50 μM PPQ, total uptake, one value per biological replicate.
[2] abbreviates: 50 μM PPQ, water-injected uptake subtracted, per replicate.
Setting [3] is: 50 μM CQ, total uptake, one value per biological replicate.
Where [4] appears, read: 50 μM CQ, water-injected uptake subtracted, per replicate.

T1 sequence (Q8IBZ9 whole entry): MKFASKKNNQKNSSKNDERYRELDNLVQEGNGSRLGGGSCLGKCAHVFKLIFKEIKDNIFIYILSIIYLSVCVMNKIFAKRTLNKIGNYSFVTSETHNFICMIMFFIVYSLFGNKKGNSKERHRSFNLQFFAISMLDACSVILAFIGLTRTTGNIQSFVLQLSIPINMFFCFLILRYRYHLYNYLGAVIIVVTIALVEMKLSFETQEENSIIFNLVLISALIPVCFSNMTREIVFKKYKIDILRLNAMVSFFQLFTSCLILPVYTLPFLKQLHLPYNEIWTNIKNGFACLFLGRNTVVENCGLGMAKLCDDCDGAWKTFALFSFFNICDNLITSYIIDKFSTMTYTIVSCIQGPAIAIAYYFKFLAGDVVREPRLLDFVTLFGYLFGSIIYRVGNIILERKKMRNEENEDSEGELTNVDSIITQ

In the case of `Clc1ccc2c(N3CCN(CCCN4CCN(c5ccnc6cc(Cl)ccc56)CC4)CC3)ccnc2c1` [PPQ, piperaquine], at PfCRT^HB3 (setting [1]), the “PfCRTHB3I PPQ uptake at 30 min” value was 72.50 pmol oocyte-1 and 74.50 pmol oocyte-1 and 59.24 pmol oocyte-1; the “PfCRTHB3 PPQ uptake at 10 min” value is 38.64 pmol oocyte-1 and 39.15 pmol oocyte-1 and 28.68 pmol oocyte-1; the “PfCRTHB3 PPQ uptake at 60 min” value is 123.26 pmol oocyte-1 and 113.71 pmol oocyte-1 and 93.83 pmol oocyte-1; the “PfCRTHB3 PPQ uptake at 90 min” value was 136.75 pmol oocyte-1 and 135.43 pmol oocyte-1 and 118.84 pmol oocyte-1. For the same compound, on PfCRT^HB3 (setting [1]), the “PfCRTHB3 PPQ uptake at 120 min” value is 198.78 pmol oocyte-1 and 176.89 pmol oocyte-1 and 174.87 pmol oocyte-1; the “PfCRTHB3 PPQ uptake at 180 min” value was 161.64 pmol oocyte-1 and 186.48 pmol oocyte-1 and 220.34 pmol oocyte-1. For the same compound, on PfCRT^HB3 (setting [2]), the “PfCRTHB3-mediated PPQ uptake at 10 min” value was 8.47 pmol oocyte-1 and 8.98 pmol oocyte-1 and -1.48 pmol oocyte-1; the “PfCRTHB3-mediated PPQ uptake at 30 min” value was 7.50 pmol oocyte-1 and 9.50 pmol oocyte-1 and -5.76 pmol oocyte-1; the “PfCRTHB3-mediated PPQ uptake at 60 min” value was 17.15 pmol oocyte-1 and 7.60 pmol oocyte-1 and -12.28 pmol oocyte-1; the “PfCRTHB3-mediated PPQ uptake at 90 min” value is 16.35 pmol oocyte-1 and 15.03 pmol oocyte-1 and -1.56 pmol oocyte-1. Besides, at PfCRT^HB3 (setting [2]), the “PfCRTHB3-mediated PPQ uptake at 120 min” value was -20.70 pmol oocyte-1 and -22.71 pmol oocyte-1 and 1.19 pmol oocyte-1; the “PfCRTHB3-mediated PPQ uptake at 180 min” value is 33.25 pmol oocyte-1 and -25.45 pmol oocyte-1 and -0.62 pmol oocyte-1. Also, the “PfCRTDd2_H97Y-mediated PPQ transport” value at PfCRT^Dd2_H97Y (50 µM PPQ + 100 µM VP) is 18.33 pmol oocyte-1 h-1 and 31.33 pmol oocyte-1 h-1 and 27.94 pmol oocyte-1 h-1 and 23.86 pmol oocyte-1 h-1.
On to `CCN(CC)CCCC(C)Nc1ccnc2cc(Cl)ccc12` (stereo not drawn) [CQ, chloroquine], for which, on PfCRT^HB3 (setting [3]), the “PfCRTHB3 uptake of CQ at 10 min” value was 3.76 pmol oocyte-1 and 2.69 pmol oocyte-1 and 4.10 pmol oocyte-1 and 2.94 pmol oocyte-1; the “PfCRTHB3 uptake of CQ at 30 min” value was 5.04 pmol oocyte-1 and 6.21 pmol oocyte-1 and 4.82 pmol oocyte-1; the “PfCRTHB3 uptake of CQ at 60 min” value is 10.53 pmol oocyte-1 and 9.06 pmol oocyte-1 and 13.05 pmol oocyte-1 and 9.38 pmol oocyte-1; the “PfCRTHB3 uptake of CQ at 90 min” value is 10.44 pmol oocyte-1 and 13.59 pmol oocyte-1 and 10.43 pmol oocyte-1. Moreover, at PfCRT^HB3 (setting [3]), the “PfCRTHB3 uptake of CQ at 120 min” value was 15.66 pmol oocyte-1 and 14.17 pmol oocyte-1 and 15.57 pmol oocyte-1; the “PfCRTHB3 uptake of CQ at 180 min” value is 15.78 pmol oocyte-1 and 15.62 pmol oocyte-1 and 19.97 pmol oocyte-1. Besides, on PfCRT^HB3 (setting [4]), the “PfCRTDd2_HB3-mediated CQ uptake at 60 min” value is 0.25 pmol oocyte-1 and -1.21 pmol oocyte-1 and 2.78 pmol oocyte-1 and -0.90 pmol oocyte-1; the “PfCRTHB3-mediated CQ uptake at 10 min” value is 0.87 pmol oocyte-1 and -0.20 pmol oocyte-1 and 1.21 pmol oocyte-1 and 0.05 pmol oocyte-1; the “PfCRTHB3-mediated CQ uptake at 30 min” value is 1.16 pmol oocyte-1 and -0.23 pmol oocyte-1 and 0.94 pmol oocyte-1 and -0.44 pmol oocyte-1; the “PfCRTHB3-mediated CQ uptake at 90 min” value is -0.39 pmol oocyte-1 and 2.75 pmol oocyte-1 and -0.41 pmol oocyte-1. At PfCRT^HB3 (setting [4]), the “PfCRTHB3-mediated CQ uptake at 120 min” value is 0.98 pmol oocyte-1 and -0.51 pmol oocyte-1 and 0.90 pmol oocyte-1; the “PfCRTHB3-mediated CQ uptake at 180 min” value was -0.99 pmol oocyte-1 and -1.15 pmol oocyte-1 and 3.20 pmol oocyte-1. In addition, the “PfCRTDd2_H97Y-mediated CQ transport” value on PfCRT^Dd2_H97Y (50 µM CQ + 100 µM VP) was 2.480 pmol oocyte-1 h-1 and 0.550 pmol oocyte-1 h-1 and 3.310 pmol oocyte-1 h-1 and 4.210 pmol oocyte-1 h-1. The “PfCRTDd2_H97Y-mediated CQ transport” value at PfCRT^Dd2_H97Y (50 µM CQ) is 8.240 pmol oocyte-1 h-1 and 3.560 pmol oocyte-1 h-1 and 5.410 pmol oocyte-1 h-1 and 4.920 pmol oocyte-1 h-1.
